US10000498B2, “Selective proton coupled folate transporter and folate receptor, and GARFTase inhibitor compounds and methods of using the same” (Duquesne University of the Holy Spirit, priority 2008, dated 2018)
Entries after “also recorded” stand apart in the source; their conditions may differ. Where two headings read alike, the source gives them in different places.

Experiments:
[1] = system: PC43-10 cells (hRFC-expressing Chinese hamster ovary); assay: Growth inhibition of hRFC-expressing PC43-10 CHO cells; type: cell-based
[2] = system: KB human tumor cells (hRFC/FRα); assay: Growth inhibition of KB human tumor cells (Cell Titer-blue cytotoxicity screen), with or without folic acid; type: cell-based; conditions: for IC50: Homo sapiens
[3] = biological target: T1, purified recombinant mouse GARFTase (Mus musculus, UniProt Q64737); assay: In vitro GARFTase inhibition assay; type: biochemical
T1 sequence (Q64737 2-1010 limits assumed): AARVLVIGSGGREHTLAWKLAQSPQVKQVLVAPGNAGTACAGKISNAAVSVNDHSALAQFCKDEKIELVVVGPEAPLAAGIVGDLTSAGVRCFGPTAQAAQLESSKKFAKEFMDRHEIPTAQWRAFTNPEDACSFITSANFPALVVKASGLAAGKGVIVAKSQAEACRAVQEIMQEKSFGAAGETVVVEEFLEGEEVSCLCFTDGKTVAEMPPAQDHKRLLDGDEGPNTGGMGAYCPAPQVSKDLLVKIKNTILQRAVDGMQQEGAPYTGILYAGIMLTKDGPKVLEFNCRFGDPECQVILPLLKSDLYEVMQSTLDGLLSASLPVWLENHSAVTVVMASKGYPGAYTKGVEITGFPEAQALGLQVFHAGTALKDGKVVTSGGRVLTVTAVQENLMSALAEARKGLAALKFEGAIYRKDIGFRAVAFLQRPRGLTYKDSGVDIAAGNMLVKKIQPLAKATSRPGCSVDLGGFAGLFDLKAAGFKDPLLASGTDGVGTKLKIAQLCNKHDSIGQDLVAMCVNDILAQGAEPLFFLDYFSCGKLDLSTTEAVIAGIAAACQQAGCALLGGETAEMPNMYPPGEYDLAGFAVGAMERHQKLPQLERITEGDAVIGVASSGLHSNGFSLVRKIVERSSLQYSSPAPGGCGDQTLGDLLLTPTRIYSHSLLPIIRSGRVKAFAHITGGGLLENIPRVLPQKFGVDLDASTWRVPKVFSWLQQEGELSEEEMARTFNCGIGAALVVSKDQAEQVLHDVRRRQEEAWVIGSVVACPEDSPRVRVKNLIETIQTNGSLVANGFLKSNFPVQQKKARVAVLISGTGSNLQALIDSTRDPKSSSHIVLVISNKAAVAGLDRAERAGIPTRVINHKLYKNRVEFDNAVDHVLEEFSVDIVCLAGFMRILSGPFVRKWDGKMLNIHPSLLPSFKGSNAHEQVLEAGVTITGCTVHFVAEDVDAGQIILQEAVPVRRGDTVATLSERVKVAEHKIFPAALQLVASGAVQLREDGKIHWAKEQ

GARFTase = biological target: T2, GARFTase (Homo sapiens, UniProt P22102); assay: In situ GARFTase assay (14C-glycine incorporation into formyl glycinamide ribonucleotide); type: cell-based; conditions: mean IC50, SEM in parentheses
T2 construct: In the in situ GARFTase assay, incorporation of ^14C-glycine into formyl glycinamide ribonucleotide was measured; endogenous in cells
T2 sequence (P22102 1-1010): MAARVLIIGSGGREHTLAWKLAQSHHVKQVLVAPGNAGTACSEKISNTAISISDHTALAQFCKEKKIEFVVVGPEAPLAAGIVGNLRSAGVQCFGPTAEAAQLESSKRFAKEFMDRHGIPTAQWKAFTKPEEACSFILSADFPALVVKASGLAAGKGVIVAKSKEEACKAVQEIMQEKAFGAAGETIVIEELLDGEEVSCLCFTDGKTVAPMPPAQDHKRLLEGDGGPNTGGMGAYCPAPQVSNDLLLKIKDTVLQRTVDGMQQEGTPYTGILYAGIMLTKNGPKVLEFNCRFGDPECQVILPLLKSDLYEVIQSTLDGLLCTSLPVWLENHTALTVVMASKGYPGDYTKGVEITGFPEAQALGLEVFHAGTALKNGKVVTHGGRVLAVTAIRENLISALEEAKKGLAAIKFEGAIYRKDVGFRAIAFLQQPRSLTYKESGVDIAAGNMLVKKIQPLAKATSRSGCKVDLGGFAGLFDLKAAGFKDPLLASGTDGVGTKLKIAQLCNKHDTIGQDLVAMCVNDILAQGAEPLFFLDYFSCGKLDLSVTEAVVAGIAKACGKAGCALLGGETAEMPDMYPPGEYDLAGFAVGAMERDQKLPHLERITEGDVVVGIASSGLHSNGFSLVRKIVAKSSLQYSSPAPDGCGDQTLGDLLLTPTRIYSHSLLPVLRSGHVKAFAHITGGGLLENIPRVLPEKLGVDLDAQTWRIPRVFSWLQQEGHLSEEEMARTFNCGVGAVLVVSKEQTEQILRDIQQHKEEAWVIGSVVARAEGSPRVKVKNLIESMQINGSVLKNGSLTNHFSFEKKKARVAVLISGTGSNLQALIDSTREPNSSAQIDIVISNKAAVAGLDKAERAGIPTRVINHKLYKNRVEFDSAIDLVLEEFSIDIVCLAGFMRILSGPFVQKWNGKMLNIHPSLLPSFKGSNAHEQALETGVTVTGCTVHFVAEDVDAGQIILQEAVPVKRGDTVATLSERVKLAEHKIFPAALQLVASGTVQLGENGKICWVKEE

[4] = system: R2/VC cells (vector control R2 CHO); assay: Growth inhibition of vector control R2 CHO cells (Cell TiterBlue, 96 h); type: cell-based, Chinese hamster; conditions: Cricetulus griseus, read-out: Growth inhibition 50% inhibitory concentration, R2/VC
hRFC = biological target: T3, hRFC (Homo sapiens, UniProt P41440); assay: Inhibition of [3H]MTX uptake by RFC in PC43 cells; type: cell-based; conditions: pH 7.2-7.4; not shown
T3 construct: expressed in transfected cells; host or cells: PC43-10 (CHO subline derived from RFC- and FR-null R2 cells)
T3 sequence (P41440 1-591): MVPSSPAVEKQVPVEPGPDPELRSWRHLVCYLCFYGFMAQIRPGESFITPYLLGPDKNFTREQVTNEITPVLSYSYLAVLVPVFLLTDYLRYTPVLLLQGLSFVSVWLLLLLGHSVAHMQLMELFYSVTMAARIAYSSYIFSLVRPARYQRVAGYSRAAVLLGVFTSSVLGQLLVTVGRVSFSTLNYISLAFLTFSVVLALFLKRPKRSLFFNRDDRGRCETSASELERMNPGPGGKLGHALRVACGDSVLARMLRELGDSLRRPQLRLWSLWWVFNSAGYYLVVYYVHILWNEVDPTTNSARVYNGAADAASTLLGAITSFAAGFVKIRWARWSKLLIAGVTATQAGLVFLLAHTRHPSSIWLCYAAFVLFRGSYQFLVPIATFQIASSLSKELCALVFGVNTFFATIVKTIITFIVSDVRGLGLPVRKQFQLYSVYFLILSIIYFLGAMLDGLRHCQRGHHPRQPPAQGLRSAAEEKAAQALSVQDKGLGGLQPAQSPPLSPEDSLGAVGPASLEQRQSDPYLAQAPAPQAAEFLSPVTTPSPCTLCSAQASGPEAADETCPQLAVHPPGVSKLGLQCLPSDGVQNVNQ

FRα = FRα (Homo sapiens, UniProt P15328); assay: FRα binding affinity relative to folic acid; conditions: folic acid set to 1
Chain of FRα (P15328 25-234): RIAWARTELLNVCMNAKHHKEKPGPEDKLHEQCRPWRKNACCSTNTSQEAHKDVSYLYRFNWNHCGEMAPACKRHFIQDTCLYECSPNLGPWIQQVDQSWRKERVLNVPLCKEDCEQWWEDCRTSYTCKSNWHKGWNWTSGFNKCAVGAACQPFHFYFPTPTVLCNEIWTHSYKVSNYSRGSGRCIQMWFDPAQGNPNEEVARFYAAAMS

Nc1nc2[nH]c(CCCCc3ccc(C(=O)N[C@@H](CCC(=O)O)C(=O)O)s3)cc2c(=O)[nH]1 [AAG154353, (S)-2-({5-[4-(2-amino-4-oxo-4,7-dihydro-3H-pyrrolo[2,3-d]pyrimidin-6-yl)-butyl]thiophene-2-carbonyl}-amino)-pentanedioic acid]
Growth inhibition of hRFC-expressing PC43-10 cells (in words) [1]: Neither AAG154353 and AAG154360 showed appreciable growth inhibition; also recorded: nearly complete lack of drug activity | IC50 ([1]; Cricetulus griseus, PC43-10, read-out: Growth inhibition (IC50, nM) hRFC PC43-10): > 1000 nM | Effect of folic acid co-treatment on growth inhibition of KB cells [2]: completely reversed growth inhibition | IC50 ([2]; read-out: Growth inhibition (IC50, nM) hRFC/FRα KB): 0.25 nM | IC50 ([2]; read-out: Growth inhibition (IC50, nM) hRFC/FRα KB (+FA)): > 1000 nM | IC50 [3]: 60 nM | IC50 (GARFTase): 0.63 nM | IC50 [4]: > 1000 nM | Inhibition of [3H]MTX transport from hRFC in pC43-10 cells (in words) (hRFC): negligible inhibition | FRα binding affinity compared to folic acid (FRα): very high binding affinities
